In publication PMC5585036 (Molecular pharmaceutics, 2017):

T1: Monocarboxylate transporter 6 (MCT6) (Homo sapiens, UniProt O15375)
T1 sequence (O15375 1-505): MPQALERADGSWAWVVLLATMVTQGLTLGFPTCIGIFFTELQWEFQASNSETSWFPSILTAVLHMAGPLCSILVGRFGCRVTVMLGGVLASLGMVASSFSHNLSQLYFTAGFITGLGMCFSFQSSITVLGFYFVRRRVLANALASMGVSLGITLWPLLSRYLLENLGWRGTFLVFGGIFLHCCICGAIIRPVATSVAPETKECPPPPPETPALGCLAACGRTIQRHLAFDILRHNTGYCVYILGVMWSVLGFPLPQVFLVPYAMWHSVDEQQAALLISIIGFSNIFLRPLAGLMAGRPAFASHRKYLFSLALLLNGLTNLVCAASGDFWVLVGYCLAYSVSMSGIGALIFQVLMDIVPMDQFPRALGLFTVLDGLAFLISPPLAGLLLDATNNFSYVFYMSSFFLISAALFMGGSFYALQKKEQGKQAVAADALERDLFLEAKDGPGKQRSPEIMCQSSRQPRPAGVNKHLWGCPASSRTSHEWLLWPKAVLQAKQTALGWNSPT

B1: Monocarboxylate transporter 6 (MCT6) (Homo sapiens) (protein)
chain: T1 sequence (O15375 1-505)

How the values were obtained:
[1] = target: T1, Monocarboxylate transporter 6 (MCT6); assay type: cell-based
[2] = target: T1, Monocarboxylate transporter 6 (MCT6); experiment: inhibition of [3H]bumetanide uptake in MCT6-expressing oocytes; assay type: cell-based
[3] = substrate: CCCCNc1cc(C(=O)O)cc(S(N)(=O)=O)c1Oc1ccccc1; experiment: radiolabeled uptake in MCT6-expressing versus water-injected oocytes; assay type: cell-based, Homo sapiens

Molecule | IC50 [1] [µM] | further results
O=c1c(O)c(-c2ccc(O)cc2O)oc2cc(O)cc(O)c12 [morin] | 33.1 ± 3.29 | –
O=C(CCc1ccc(O)cc1)c1c(O)cc(O)cc1O [phloretin] | – | Ki [2]: 22.8 ± 6.95 µM
O=c1c(O)c(-c2ccc(O)c(O)c2)oc2cc(O)cc(O)c12 [quercetin] | 25.3 ± 3.36 | –
B1 | – | Km [3]: 60.5 ± 14.1 µM
